Columns and labels:
[1] = tested on: wild-type and drug-resistant HIV clones; assay: Monogram drug susceptibility assays, profile across viral panel; format: cell-based, HIV-1; conditions: weakest EC50 to a variant divided by that to wild-type
[2] = tested on: wild-type HIV-1 protease and drug-resistant variants M1, M2, M3, M4; assay: FRET enzyme inhibition, profile across wild type and mutant panel; format: biochemical; conditions: weakest Ki to a drug-resistant variant divided by Ki to wild type
wild-type HIV-1 protease = wild-type HIV-1 protease (Human immunodeficiency virus type 1 group M subtype B, UniProt P03369); assay: FRET enzyme inhibition assay, wild-type protease; format: biochemical
[3] = biological target: HIV-1 protease M2 (D30N, N88D) (Human immunodeficiency virus type 1 group M subtype B, UniProt P03369, D520N/N578D); assay: FRET enzyme inhibition assay, M2 variant; format: biochemical
[4] = biological target: HIV-1 protease M4 (I50V, A71V) (Human immunodeficiency virus type 1 group M subtype B, UniProt P03369, A561V/I540V); assay: FRET enzyme inhibition assay, M4 variant; format: biochemical

Q: CC[C@H](C)[C@H](NC(C)=O)C(=O)N[C@@H](Cc1ccccc1)[C@H](O)CN(CC(C)C)S(=O)(=O)c1ccc(OC)cc1 [AF-68] was tested. Which worst-fold activity loss [1] did it give?
A: 4.4 fold

Q: COc1ccc(S(=O)(=O)N(CCCc2ccccc2)C[C@@H](O)[C@H](Cc2ccccc2)NC(=O)c2cccc(O)c2)cc1 [AF-78] was tested. Which worst-fold affinity loss [2] did it give?
A: 98 fold

Q: Which “loss in affinity to wild-type protease compared to parent compound” value (wild-type HIV-1 protease; AF-71 vs AD-93, AF-80 vs KB-83) does the source give for CC[C@H](C)CN(C[C@@H](O)[C@H](Cc1ccccc1)NC(=O)c1cccc(O)c1)S(=O)(=O)c1ccc(-c2ccno2)s1 [AF-71] here?
A: 72 fold

Q: For O=C(N[C@@H](Cc1ccccc1)[C@H](O)CN(CC1CCCCC1)S(=O)(=O)c1ccc2ncsc2c1)c1cccc(O)c1 [AF-72], which worst-fold activity loss [1] is on record?
A: 2.6 fold

Q: COc1ccc(S(=O)(=O)N(CC2CCCCC2)C[C@@H](O)[C@H](Cc2ccccc2)NC(=O)c2cccc(O)c2)cc1 [AF-77] was tested. Which worst-fold activity loss [1] did it give?
A: 2.2 fold

Q: CC[C@H](C)CN(C[C@@H](O)[C@H](Cc1ccccc1)NC(=O)[C@@H](NC(C)=O)[C@@H](C)CC)S(=O)(=O)c1ccc2ncsc2c1 [AG-23] was tested. Which Ki [3] did it give?
A: 0.028 ± 0.025 nM

Q: What about the Ki [4] of the same molecule?
A: 0.092 ± 0.025 nM

Q: What about the Ki (wild-type HIV-1 protease; Ki, wild type, mean ± standard deviation) of the same molecule?
A: 0.021 ± 0.009 nM

Q: What about the worst-fold activity loss [1] of the same molecule?
A: 3.2 fold
